# Source: US20230365592A1 (Agios Pharmaceuticals, Inc., priority 2022, published 2023)
# Molecular target: T1, human PAH with the R408W mutation (Homo sapiens, UniProt P00439, R408W)
# T1 construct: expressed in transfected cells
# T1 sequence (P00439 1-452 R408W): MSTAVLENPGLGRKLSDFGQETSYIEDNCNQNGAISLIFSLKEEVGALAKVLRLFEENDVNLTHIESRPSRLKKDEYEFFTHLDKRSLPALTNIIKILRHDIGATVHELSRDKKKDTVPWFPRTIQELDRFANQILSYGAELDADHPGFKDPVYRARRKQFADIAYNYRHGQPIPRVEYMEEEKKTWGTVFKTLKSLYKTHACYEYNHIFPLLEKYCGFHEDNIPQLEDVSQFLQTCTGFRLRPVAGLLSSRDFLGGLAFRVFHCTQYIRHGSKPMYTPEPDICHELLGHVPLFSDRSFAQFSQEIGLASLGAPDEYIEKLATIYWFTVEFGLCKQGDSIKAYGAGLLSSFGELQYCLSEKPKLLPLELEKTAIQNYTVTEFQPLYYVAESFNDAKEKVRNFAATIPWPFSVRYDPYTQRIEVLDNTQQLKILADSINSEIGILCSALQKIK
# Assay: Cell Based Phenylalanine Flux Assay;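 also: after compound treatment, cells received sepiapterin plus isotope-labelled Phenylalanine for 4 hours, then labelled Tyrosine in the medium was quantified, 10-point 2-fold dilution series run in duplicate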
# Details: A375 cells expressing human PAH R408W; 24 hrs compound incubation; 13C-Tyrosine by LC-MS; average where tested multiple times; read-out: AC50
row,Compound,AC50 [nM]
1,"CC(C)c1cccn2nc([C@@H]3c4nc[nH]c4CCN3c3nnc(-c4ccncn4)o3)cc12 [Example 2180, (S)-2-(4-(4-isopropylpyrazolo[1,5-a]pyridin-2-yl)-1,4,6,7-tetrahydro-5H-imidazo[4,5-c]pyridin-5-yl)-5-(pyrimidin-4-yl)-1,3,4-oxadiazole]",500 to 1000
2,"CC(C)c1cccn2nc([C@H]3c4nc[nH]c4CCN3c3nnc(-c4ccncn4)o3)cc12 [Example 2181, (R)-2-(4-(4-isopropylpyrazolo[1,5-a]pyridin-2-yl)-1,4,6,7-tetrahydro-5H-imidazo[4,5-c]pyridin-5-yl)-5-(pyrimidin-4-yl)-1,3,4-oxadiazole]",> 5000
3,"Clc1cccn2nc([C@H]3c4nc[nH]c4CCN3c3nnc(-c4ccncn4)o3)cc12 [Example 2183, (R)-2-(4-(4-chloropyrazolo[1,5-a]pyridin-2-yl)-1,4,6,7-tetrahydro-5H-imidazo[4,5-c]pyridin-5-yl)-5-(pyrimidin-4-yl)-1,3,4-oxadiazole]",> 5000
4,"CC(C)c1cccn2nc([C@@H]3c4nc[nH]c4CCN3c3ncc(C(F)(F)F)cn3)cc12 [Example 2185, (S)-4-(4-isopropylpyrazolo[1,5-a]pyridin-2-yl)-5-(5-(trifluoromethyl)pyrimidin-2-yl)-4,5,6,7-tetrahydro-1H-imidazo[4,5-c]pyridine]",< 500
5,"Cc1nnc(N2CCc3[nH]cnc3[C@H]2c2cc3c(C4CC4)cccn3n2)o1 [Example 2187, (S)-2-(4-(4-cyclopropylpyrazolo[1,5-a]pyridin-2-yl)-1,4,6,7-tetrahydro-5H-imidazo[4,5-c]pyridin-5-yl)-5-methyl-1,3,4-oxadiazole]",< 500
6,"Cc1cccn2nc([C@@H]3c4nc[nH]c4CCN3c3nnc(C4(C)CC4)o3)cc12 [Example 2189, (S)-2-(1-methylcyclopropyl)-5-(4-(4-methylpyrazolo[1,5-a]pyridin-2-yl)-1,4,6,7-tetrahydro-5H-imidazo[4,5-c]pyridin-5-yl)-1,3,4-oxadiazole]",500 to 1000
7,"CC(F)(F)c1nnc(N2CCc3[nH]cnc3[C@H]2c2cc3ccccn3n2)o1 [Example 2191, (S)-2-(1,1-difluoroethyl)-5-(4-(pyrazolo[1,5-a]pyridin-2-yl)-1,4,6,7-tetrahydro-5H-imidazo[4,5-c]pyridin-5-yl)-1,3,4-oxadiazole]",500 to 1000
8,"Cc1cccn2nc([C@@H]3c4nc[nH]c4CCN3c3nnc(C(C)(F)F)o3)cc12 [Example 2193, (S)-2-(1,1-difluoroethyl)-5-(4-(4-methylpyrazolo[1,5-a]pyridin-2-yl)-1,4,6,7-tetrahydro-5H-imidazo[4,5-c]pyridin-5-yl)-1,3,4-oxadiazole]",< 500
9,"CC(F)(F)c1nnc(N2CCc3[nH]cnc3[C@H]2c2cc3c(C(F)(F)F)cccn3n2)o1 [Example 2195, (S)-2-(1,1-difluoroethyl)-5-(4-(4-(trifluoromethyl)pyrazolo[1,5-a]pyridin-2-yl)-1,4,6,7-tetrahydro-5H-imidazo[4,5-c]pyridin-5-yl)-1,3,4-oxadiazole]",< 500
10,"CC(F)(F)c1nnc(N2CCc3[nH]cnc3[C@H]2c2cc3c(F)cccn3n2)o1 [Example 2197, (S)-2-(1,1-difluoroethyl)-5-(4-(4-fluoropyrazolo[1,5-a]pyridin-2-yl)-1,4,6,7-tetrahydro-5H-imidazo[4,5-c]pyridin-5-yl)-1,3,4-oxadiazole]",500 to 1000
11,"Clc1cccn2nc([C@@H]3c4nc[nH]c4CCN3c3nnc(-c4cccnn4)o3)cc12 [Example 2198, (S)-2-(4-(4-chloropyrazolo[1,5-a]pyridin-2-yl)-1,4,6,7-tetrahydro-5H-imidazo[4,5-c]pyridin-5-yl)-5-(pyridazin-3-yl)-1,3,4-oxadiazole]",500 to 1000
12,"COc1cccn2nc([C@@H]3c4nc[nH]c4CCN3c3ncc(C(F)(F)F)cn3)cc12 [Example 2200, (S)-4-(4-methoxypyrazolo[1,5-a]pyridin-2-yl)-5-(5-(trifluoromethyl)pyrimidin-2-yl)-4,5,6,7-tetrahydro-1H-imidazo[4,5-c]pyridine]",< 500
13,"COc1cccn2nc([C@H]3c4nc[nH]c4CCN3c3ncc(C(F)(F)F)cn3)cc12 [Example 2201, (R)-4-(4-methoxypyrazolo[1,5-a]pyridin-2-yl)-5-(5-(trifluoromethyl)pyrimidin-2-yl)-4,5,6,7-tetrahydro-1H-imidazo[4,5-c]pyridine]",> 5000
14,"CC(F)(F)c1nnc(N2CCc3[nH]cnc3[C@@H]2c2cc3c(C(F)F)cccn3n2)o1 [Example 2202, (R)-2-(1,1-difluoroethyl)-5-(4-(4-(difluoromethyl)pyrazolo[1,5-a]pyridin-2-yl)-1,4,6,7-tetrahydro-5H-imidazo[4,5-c]pyridin-5-yl)-1,3,4-oxadiazole]",> 5000
15,"CC(F)(F)c1nnc(N2CCc3[nH]cnc3[C@H]2c2cc3c(C(F)F)cccn3n2)o1 [Example 2203, (S)-2-(1,1-difluoroethyl)-5-(4-(4-(difluoromethyl)pyrazolo[1,5-a]pyridin-2-yl)-1,4,6,7-tetrahydro-5H-imidazo[4,5-c]pyridin-5-yl)-1,3,4-oxadiazole]",< 500
16,"CC(F)(F)c1nnc(N2CCc3[nH]cnc3[C@H]2c2cc3c(C4CC4)cccn3n2)o1 [Example 2205, (S)-2-(4-(4-cyclopropylpyrazolo[1,5-a]pyridin-2-yl)-1,4,6,7-tetrahydro-5H-imidazo[4,5-c]pyridin-5-yl)-5-(1,1-difluoroethyl)-1,3,4-oxadiazole]",< 500
17,"Cc1ncccc1-c1nnc(N2CCc3[nH]cnc3[C@@H]2c2cc3c(C)cccn3n2)o1 [Example 2207, (R)-2-(4-(4-methylpyrazolo[1,5-a]pyridin-2-yl)-1,4,6,7-tetrahydro-5H-imidazo[4,5-c]pyridin-5-yl)-5-(2-methylpyridin-3-yl)-1,3,4-oxadiazole]",> 5000
18,"FC(F)c1nnc(N2CCc3[nH]cnc3[C@@H]2c2cc3cccc(C(F)F)n3n2)o1 [Example 2220, (R)-2-(difluoromethyl)-5-(4-(7-(difluoromethyl)pyrazolo[1,5-a]pyridin-2-yl)-1,4,6,7-tetrahydro-5H-imidazo[4,5-c]pyridin-5-yl)-1,3,4-oxadiazole]",> 5000
19,"FC(F)c1nnc(N2CCc3[nH]cnc3[C@H]2c2cc3cccc(C(F)F)n3n2)o1 [Example 2221, (S)-2-(difluoromethyl)-5-(4-(7-(difluoromethyl)pyrazolo[1,5-a]pyridin-2-yl)-1,4,6,7-tetrahydro-5H-imidazo[4,5-c]pyridin-5-yl)-1,3,4-oxadiazole]",1000 to 5000
20,"O=C([C@H]1CC1(F)F)N1CCc2[nH]cnc2[C@H]1c1cc2c(F)cccn2n1 [Example 2223, ((R)-2,2-difluorocyclopropyl)((S)-4-(4-fluoropyrazolo[1,5-a]pyridin-2-yl)-1,4,6,7-tetrahydro-5H-imidazo[4,5-c]pyridin-5-yl)methanone]",1000 to 5000
21,"c1cc(C2CC2)c2cc([C@H]3c4nc[nH]c4CCN3c3cnccn3)nn2c1 [Example 2224, (R)-4-(4-cyclopropylpyrazolo[1,5-a]pyridin-2-yl)-5-(pyrazin-2-yl)-4,5,6,7-tetrahydro-1H-imidazo[4,5-c]pyridine]",1000 to 5000
22,"c1cc(C2CC2)c2cc([C@@H]3c4nc[nH]c4CCN3c3cnccn3)nn2c1 [Example 2225, (S)-4-(4-cyclopropylpyrazolo[1,5-a]pyridin-2-yl)-5-(pyrazin-2-yl)-4,5,6,7-tetrahydro-1H-imidazo[4,5-c]pyridine]",< 500
23,"CC(C)c1cccn2nc([C@@H]3c4nc[nH]c4CCN3c3nnc(C(C)(F)F)o3)cc12 [Example 2231, (S)-2-(1,1-difluoroethyl)-5-(4-(4-isopropylpyrazolo[1,5-a]pyridin-2-yl)-1,4,6,7-tetrahydro-5H-imidazo[4,5-c]pyridin-5-yl)-1,3,4-oxadiazole]",< 500
24,"Cc1ncccc1-c1nnc(N2CCc3[nH]cnc3[C@H]2c2cc3c(C(C)C)cccn3n2)o1 [Example 2234, (S)-2-(4-(4-isopropylpyrazolo[1,5-a]pyridin-2-yl)-1,4,6,7-tetrahydro-5H-imidazo[4,5-c]pyridin-5-yl)-5-(2-methylpyridin-3-yl)-1,3,4-oxadiazole]",500 to 1000
25,"Cc1ncccc1-c1nnc(N2CCc3[nH]cnc3[C@@H]2c2cc3c(C(C)C)cccn3n2)o1 [Example 2235, (R)-2-(4-(4-isopropylpyrazolo[1,5-a]pyridin-2-yl)-1,4,6,7-tetrahydro-5H-imidazo[4,5-c]pyridin-5-yl)-5-(2-methylpyridin-3-yl)-1,3,4-oxadiazole]",> 5000
26,"Cc1ncccc1-c1nnc(N2CCc3[nH]cnc3[C@H]2c2cc3c(Cl)cccn3n2)o1 [Example 2236, (S)-2-(4-(4-chloropyrazolo[1,5-a]pyridin-2-yl)-1,4,6,7-tetrahydro-5H-imidazo[4,5-c]pyridin-5-yl)-5-(2-methylpyridin-3-yl)-1,3,4-oxadiazole]",< 500
27,"c1ccc(N2CCc3[nH]cnc3[C@@H]2c2cc3ccccn3n2)cc1 [Example 2238, (R)-5-phenyl-4-(pyrazolo[1,5-a]pyridin-2-yl)-4,5,6,7-tetrahydro-1H-imidazo[4,5-c]pyridine]",1000 to 5000
28,"c1ccc(N2CCc3[nH]cnc3[C@H]2c2cc3ccccn3n2)cc1 [Example 2239, (S)-5-phenyl-4-(pyrazolo[1,5-a]pyridin-2-yl)-4,5,6,7-tetrahydro-1H-imidazo[4,5-c]pyridine]",< 500
